Where two headings read alike, the source gives them in different places.
Columns and labels:
[1] = test system: P. falciparum W2 (chloroquine and pyrimethamine resistant); test: in vitro antimalarial activity against W2; type: cell-based; details: for EC50: Plasmodium falciparum; for fold decrease in antimalarial activity: W2, compared to compound 5; for times less active against W2: in comparison to reference compound 17; for antimalarial activity in words: W2
[2] = test system: P. berghei; details: rodent malaria models; cited from earlier work
[3] = test system: P. falciparum TM90-C2B (chloroquine, mefloquine, pyrimethamine and atovaquone resistant); test: in vitro antimalarial activity against TM90-C2B; type: cell-based; details: for fold decrease in antimalarial activity / antimalarial activity in words: TM90-C2B; for fold decrease in antimalarial activity: compared to compound 5; for fold more potent against TM90-C2B: compared to compound 27; for EC50: Plasmodium falciparum

O=C1C(O)=C([C@H]2CC[C@H](c3ccc(Cl)cc3)CC2)C(=O)c2ccccc21 [ATO, atovaquone, reference compound]
EC50 ([1]; W2, read-out: EC50 W2, Table 1, PEQ analogs): 0.53 nM
EC50 ([1]; W2, read-out: EC50 W2, Table 2, 3-aryl PEQs): 0.53 nM

CCCCc1cc2c(=O)c(C(=O)OC)c[nH]c2cc1OCCOc1ccccc1 [Compound 5, reference compound]
ED50, causal prophylactic and blood schizonticidal activity [2]: 0.05 mg/kg
fold stronger inhibition of W2 than TM90-C2B ([1]; W2 versus TM90-C2B): approximately 220 fold

COC(=O)c1c[nH]c2cc(OC)c(Cl)cc2c1=O [Compound 14]
fold decrease in antimalarial activity [3]: ≥ 70 fold
fold decrease in antimalarial activity [1]: ≥ 70 fold

CCCCc1cc2c(=O)cc(C)[nH]c2cc1OCCOc1ccccc1 [Compound 15]
fold decrease in antimalarial activity [3]: 4 fold
fold decrease in antimalarial activity [1]: 4000 fold

CCc1c(C)[nH]c2cc(OCCOc3ccccc3)c(C)cc2c1=O [Compound 18]
fold more potent against TM90-C2B [3]: approximately 3 fold

CCc1c(C)[nH]c2cc(OCCOc3ccccc3)c(OC)cc2c1=O [Compound 19]
fold more potent against TM90-C2B [3]: approximately 3 fold

CCc1c(C)[nH]c2cc(OCOC)c(Cl)cc2c1=O [Compound 20]
times less active against W2 [1]: approximately four-fold less active

CCc1c(C)[nH]c2cc(OCCCN3CCN(c4ccccc4)CC3)c(Cl)cc2c1=O [Compound 26]
times less active against W2 [1]: approximately four-fold less active

CCCCc1cc2c(=O)c(-c3ccncc3)c(C)[nH]c2cc1OCCOc1ccccc1 [Compound 32]
antimalarial activity in words [3]: moderate activity in low μM or high nM range
antimalarial activity in words [1]: moderate activity in low μM or high nM range

CCCCc1cc2c(=O)c(-c3cccnc3)c(C)[nH]c2cc1OCCOc1ccccc1 [Compound 33]
antimalarial activity in words [3]: moderate activity in low μM or high nM range
antimalarial activity in words [1]: moderate activity in low μM or high nM range

CCCCc1cc2c(=O)c(-c3c(C)noc3C)c(C)[nH]c2cc1OCCOc1ccccc1 [Compound 43]
antimalarial activity in words [3]: approximately five times less potent

C[C@H]1[C@@H](O)O[C@@H]2O[C@@]3(C)CC[C@H]4[C@H](C)CC[C@@H]1[C@@]24OO3 [DHA, Dihydroartemisinin, reference compound]
EC50 ([3]; TM90, read-out: EC50 TM90-C2B, Table 1, PEQ analogs): 0.9 nM
EC50 ([3]; TM90, read-out: EC50 TM90-C2B, Table 2, 3-aryl PEQs): 0.9 nM
EC50 ([1]; W2, read-out: EC50 W2): 1.8 nM

From paper PMC9247345 (Journal of medicinal chemistry, 2011)
